Several values for one entry are separate records, joined by “and”; a condition that tells them apart may be missing. Identical values can stand only once. Entries after “also recorded” stand apart in the source; their conditions may differ.
What was measured:
[1] = Trough plasma compound levels in DIO-GAN mice; type: in vivo, mouse; conditions: plasma 21-24 h post final dose
Method: Terminal plasma samples were harvested by cardiac puncture approximately 21-24 hours after the last administration of compound(s). Terminal plasma samples were analyzed by high resolution LC-MS/MS using a Triple Quad 6500+ instrument. 20 μL of plasma sample was mixed with 200 μL of internal standard solution (100 ng/mL Labetalol+100 ng/mL Tolbutamide in acetonitrile), vortexed, and centrifuged at 4,000 rpm for 15 min at 4° C. […] The internal standard 1 (retention time: 0.87 min) and standard 2 (retention time: 0.96 min) were used for quantification of Compound 3 (retention time: 0.87 min) and Compound 2 (retention time: 0.97 min), respectively. The internal standard (retention time: 0.76 min), was used for quantification of the glucuronide metabolite of Compound 3 (retention time: 0.77 min). Calibration curves (1-3000 ng/mL) were generated in a matrix of mouse plasma (pooled vehicle control) for each analyte.

DIO-GAN NASH mouse model = assay: Biopsy-confirmed DIO-GAN NASH mice, 12 weeks mono- and combination treatment; type: in vivo
From the text: C57BL/6JRj male mice (n=138) were fed the Gubra Amylin NASH (GAN) diet (40% fat, 22% fructose, 2% cholesterol [D09100310, Research Diets]) or lean chow diet for 35 weeks before treatment start. Prior to treatment all animals underwent liver biopsy for histological confirmation (steatosis score ≥2 and fibrosis stage ≥1) and stratification using the nonalcoholic fatty liver disease (NAFLD) activity scoring (NAS) and fibrosis staging system. The diet-induced obese mice on GAN diet (DIO-GAN) were randomized to 8 treatment groups […] based on percent-area of picrosirius red (PSR) staining. DIO-GAN mice (n=16 per group) received treatment (PO, QD) for 12 weeks with vehicle (0.5% HPMC+0.2% Tween-80 in Tris buffer [50 mM, pH 8]), Compound 3 (10 mg/kg), Compound 2 (0.3 mg/kg [low], 2 mg/kg [med], or 10 mg/kg [high]), or combination treatments of Compound 3 with Compound 2 (Combo-low, Combo-med or Combo-high). Vehicle-dosed lean chow-fed controls served as healthy controls (n=10). Mice were maintained on their respective diets (GAN or lean chow) for the duration of the study. Within-subject comparisons (pre- vs. post-treatment) were performed for liver biopsy histopathological scores. Terminal quantitative endpoints included plasma/liver biochemistry, liver histomorphometry, and liver transcriptomic analysis by RNAseq.
Formalin-fixed paraffin-embedded (FFPE) liver biopsies were prepared by placing liver samples into 10% neutral buffered formalin for ˜24 hours and then transferred to 70% ethanol prior to storage at 4 C. FFPE were placed in the Histokinette to infiltrate prior to embedding in blocks. Biopsy tissues were then cut at 3 μm using a microtome and sections were mounted on slides. Liver sections were stained with Hematoxylin and Eosin (H&E) to assess steatosis, inflammation, and ballooning, and PSR to assess fibrosis. Additionally, slides were processed to detect type I collagen (Col1a1), galectin-3 (Gal-3), and smooth muscle actin (α-SMA) protein expression by immunohistochemistry (IHC). For H&E staining, slides were incubated in Mayer's Hematoxylin (Dako), washed with tap water, stained in Eosin Y solution (Sigma-Aldrich), dehydrated, and coverslipped. For PSR, slides were incubated in Weigert's iron hematoxylin (Sigma-Aldrich), washed in tap water, stained in Picro-sirius red (Sigma-Aldrich), and washed twice in acidified water. Excess water was removed by shaking the slides and the slides were then dehydrated with ethanol, cleared in xylene, and cover-slipped. The NAS and fibrosis stage were scored as described previously (Kleiner et al. 2005). NAS represents the unweighted sum of steatosis, inflammation, and ballooning scores and ranges for 0-8 (Table 26); fibrosis stage ranges from 0 (no fibrosis) to 4 (cirrhosis). For detection of Col1a1, Gal-3 and α-SMA, IHC was performed by standard procedures. Briefly, after antigen retrieval and blocking of endogenous peroxidase activity, slides were incubated with primary antibody (Col1a1: Southern Biotech, Cat. 1310-01; Gal-3: Biolegend, Cat. 125402; α-SMA: Abcam Cat. Ab124964). Primary antibody was detected using a polymeric HRP-linker antibody conjugate. Primary antibody was visualized with DAB as chromogen. Finally, sections were counterstained in hematoxylin and cover-slipped.
Terminal blood was harvested by cardiac puncture from mice anesthetized with isoflurane (2-3%), mixed with anticoagulant, and placed at 4 C prior to centrifugation at 3000×g for 10 minutes. Plasma supernatants were transferred to new tubes and immediately frozen on dry ice and stored at −80 C. Alanine transaminase (ALT), Aspartate transaminase (AST), Alkaline phosphatase (ALP), Triglycerides (TGs), Total Cholesterol (TC), High-density lipoprotein (HDL-c), and Low-density lipoprotein (LDL-c) were measured using commercial kits (Roche Diagnostics) on the Cobas c 501 autoanalyzer according to manufacturer's instructions. […]

[2] = 12 wk PO QD, vs DIO-GAN vehicle control
[3] = 12 wk PO QD, Compound 3 10 mg/kg
[4] = 12 wk PO QD, single agent 10 mg/kg

For `Cn1cc(C(=O)O)c2ccc(N3CCC(OCc4c(-c5c(Cl)cccc5Cl)noc4C4CC4)CC3)cc21` [Compound 3], the “Mean trough analyte concentration (SD)” value ([1]; group Combo-high, Compound 3 10 mg/kg + Compound 2 10 mg/kg (14)) was 3.3 (1.8) ng/mL, the “Mean trough analyte concentration (SD)” value ([1]; group Combo-med, Compound 3 10 mg/kg + Compound 2 2 mg/kg (16)) was 5.8 (3.5) ng/mL and the “Mean trough analyte concentration (SD)” value ([1]; group Compound 3 10 mg/kg (16)) was 7.4 (3.8) ng/mL. For the same molecule, the “Gal-3 expression in the liver (IHC) relative to DIO-GAN vehicle control” value (DIO-GAN NASH mouse model; 12 wk PO QD) was “reduces expression of Galectin-3; also recorded: lower levels of Gal-3 expression”, the “body weight during the study” value (DIO-GAN NASH mouse model; 12 wk PO QD) was “reduced body weight; also recorded: decreased body weight” and the “hepatomegaly (liver weight)” value (DIO-GAN NASH mouse model; [2]) was “significantly reduced hepatomegaly”. For the same molecule, the spleen weight (DIO-GAN NASH mouse model; [2]) was “without changes in spleen weight”, the “total cholesterol (plasma)” value (DIO-GAN NASH mouse model; [2]) was “significantly reduced total cholesterol” and the “Histological steatosis score: mice improving 1-pt” value (DIO-GAN NASH mouse model; [3]) was 81.25%. For the same molecule, the “Histological steatosis score: mice improving >2-pt” value (DIO-GAN NASH mouse model; [3]) was 0%, the “Histological steatosis score: mice with no change” value (DIO-GAN NASH mouse model; [3]) was 18.75% and the “Liver fibrosis stage: mice improving” value (DIO-GAN NASH mouse model; [3]) was 6.25%. For the same molecule, the “Liver fibrosis stage: mice with no change” value (DIO-GAN NASH mouse model; [3]) was 56.25%, the “Liver fibrosis stage: mice worsening” value (DIO-GAN NASH mouse model; [3]) was 37.5% and the “Lobular inflammation: mice improving” value (DIO-GAN NASH mouse model; [3]) was 0%. For the same molecule, the “Lobular inflammation: mice with no change” value (DIO-GAN NASH mouse model; [3]) was 68.75%, the “Lobular inflammation: mice worsening” value (DIO-GAN NASH mouse model; [3]) was 31.25% and the plasma triglycerides (DIO-GAN NASH mouse model; 12 wk PO QD, Compound 3 10 mg/kg, Compound 2-high 10 mg/kg, combinations) was “significantly reduced plasma triglycerides”. The “Histological steatosis score: mice improving, Total (at least 1-pt)” value (DIO-GAN NASH mouse model; 12 wk PO QD, Compound 3 10 mg/kg, 10 mg/kg) was 81% and 81.25%, the “body weight at the end of study vs DIO-GAN vehicle control” value (DIO-GAN NASH mouse model; 12 wk PO QD, Compound 3 10 mg/kg, Combo = + Compound 2 0.3/2/10 mg/kg) was “significantly lower” and the “α-SMA (IHC), marker of hepatic stellate cell activation” value (DIO-GAN NASH mouse model; 12 wk PO QD, Compound 3, Compound 2-low and -med, Combo-low) was “Numeric reductions”. The “NAS: mice improving ≥2-pt” value (DIO-GAN NASH mouse model; [4]) was 0%, the “NAS: mice improving, Total (≥1-pt)” value (DIO-GAN NASH mouse model; [4]) was 56% and the “fat tissue mass (EchoMRI)” value (DIO-GAN NASH mouse model; Week 11) was “significantly reduced fat tissue mass; also recorded: reduced levels of fat tissue”. The Scd1 expression (DIO-GAN NASH mouse model; liver RNAseq) was “reduced” and the “expression of Col1a1, Acta2, Lgals3, CD146 relative to DIO-GAN vehicle control” value (DIO-GAN NASH mouse model; liver RNAseq) was “significantly reduced expression”.

From patent US20230241071A1, “COMBINATION TREATMENT OF LIVER DISORDERS” (Terns Pharmaceuticals, Inc., priority 2021, published 2023)
